We go through nine molecules from ChEMBL document CHEMBL1821670, “Synthesis and in vitro biological evaluation of carbonyl group-containing analogues for σ1 receptors” (J Med Chem, 2011).

In general, Ki refers to a measure of affinity in units of concentration, obtained from inhibition or displacement.

The nature of experiment [1]: Displacement of [3H]-DTG from sigma 2 receptor in rat liver membrane homogenates after 2 hrs by liquid scintillation counting. The experiment is classed as cell membranes. For orientation: Displacement assays read how much labelled ligand stays bound in the presence of the test substance.
Experiment [2] has as its target Sigma non-opioid intracellular receptor 1 (Cavia porcellus, UniProt Q60492). Nature of the experiment: Displacement of (+)-[3H]pentazocine from sigma 1 receptor in guinea pig brain membrane homogenates after 90 mins by liquid scintillation counting. It is filed as cell membranes.
In experiment [3] the target is T1, Vesicular acetylcholine transporter (Homo sapiens, UniProt Q16572).
T1 sequence (Q16572 whole entry): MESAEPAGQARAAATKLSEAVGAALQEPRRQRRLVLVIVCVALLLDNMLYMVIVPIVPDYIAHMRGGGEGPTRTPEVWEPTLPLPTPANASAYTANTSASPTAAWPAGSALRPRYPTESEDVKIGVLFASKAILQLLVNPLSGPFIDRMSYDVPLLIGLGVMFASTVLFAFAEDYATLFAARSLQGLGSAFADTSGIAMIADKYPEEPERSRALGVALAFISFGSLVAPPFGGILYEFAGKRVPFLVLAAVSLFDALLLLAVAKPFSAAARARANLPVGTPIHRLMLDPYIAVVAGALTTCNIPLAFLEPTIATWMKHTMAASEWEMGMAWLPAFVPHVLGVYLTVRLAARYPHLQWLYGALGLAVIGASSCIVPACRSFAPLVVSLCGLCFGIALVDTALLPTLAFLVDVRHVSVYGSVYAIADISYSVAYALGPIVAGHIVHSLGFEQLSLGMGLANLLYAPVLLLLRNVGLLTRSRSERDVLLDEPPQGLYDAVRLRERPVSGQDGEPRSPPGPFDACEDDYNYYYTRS
In words: Displacement of (-)-[3H]vesamicol from human VAChT expressed in rat PC12 A123.7 cells after 20 hrs. The experiment is classed as cell-based, PC-12.

Experiment [4] is described as follows: Selectivity ratio of Ki for sigma 1 receptor in guinea pig brain membrane homogenates to Ki for human VAChT. It is filed as cell membranes.
The nature of experiment [5]: Selectivity ratio of Ki for sigma 1 receptor in guinea pig brain membrane homogenates to Ki for sigma 2 receptor in rat liver membrane homogenates. The experiment is classed as cell membranes.

Sigma non-opioid intracellular receptor 1, sequence (Q60492 whole entry): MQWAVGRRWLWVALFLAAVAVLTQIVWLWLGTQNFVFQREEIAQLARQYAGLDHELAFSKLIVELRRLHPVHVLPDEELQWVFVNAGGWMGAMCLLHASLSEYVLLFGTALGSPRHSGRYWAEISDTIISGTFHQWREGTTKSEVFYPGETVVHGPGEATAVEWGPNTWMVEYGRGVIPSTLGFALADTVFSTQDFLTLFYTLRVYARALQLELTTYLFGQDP

For `O[C@@H]1CCN(Cc2ccc(F)cc2)C[C@H]1N1CCC(c2ccccc2)CC1`, affinity in experiment [1] was put at a Ki of 0.0359 µM.
For `Cc1ccc(C2CCN([C@@H]3CCCC[C@H]3O)CC2)cc1`, the inhibitory constant (Ki) in experiment [2] was 0.0081 µM; in experiment [1] it was 0.0424 µM; in experiment [3], 0.0229 µM.
In experiment [1], `COc1ccc(CCN2CCN(CCCc3ccccc3)CC2)cc1OC` registered a Ki of 0.242 µM.
`O[C@@H]1CCN(Cc2cccc(I)c2)C[C@H]1N1CCC(c2ccccc2)CC1`: the figures for the Ki in experiment [2] and in experiment [1] were 0.092 µM and 0.19 µM, respectively.
`O=C(c1ccc(F)cc1)C1CCN([C@H]2CCN(C(=O)c3ccc(F)cc3)C[C@@H]2O)CC1` (relative stereo): the Ratio Ki in experiment [4] came to 1.1; in experiment [5] it was 2.7. In experiment [1], this molecule had a Ki of 8.64 µM.
For the molecule `O=C(c1ccc(F)cc1)C1CCN([C@H]2CN(Cc3cccnc3)CC[C@@H]2O)CC1` (relative stereo), the figures for the Ratio Ki in experiment [4] and in experiment [5] were 0.2 and 11, respectively. Further, in experiment [1], the inhibition constant (Ki) is 13 µM.
With `COc1ccc(C(=O)C2CCN([C@H]3CN(Cc4ccccc4)CC[C@@H]3O)CC2)cc1` (relative stereo), the Ratio Ki in experiment [4] was 0.17; in experiment [5], 41. For the same molecule, the inhibition constant (Ki) in experiment [1] is 8.54 µM.
Regarding `COc1ccc(C(=O)C2CCN([C@H]3CN(Cc4cccnc4)CC[C@@H]3O)CC2)cc1` (relative stereo), the affinity in experiment [1] corresponds to a Ki of 17.1 µM.
Turning to `O[C@@H]1CCCC[C@H]1N1CCC(c2ccccc2)CC1` [VESAMICOL], the Ki came to 0.0738 µM in experiment [2] and 0.346 µM in experiment [1].
